Measured values as given in patent US11944112B2, “Stabilized steviol glycoside malonic acid esters” (CARGILL, INCORPORATED, priority 2020, dated 2024).
Where a SMILES comes first, the peptide text is derived from it.

Assay: Acid-stability at pH 1.7 (percent recovered by UHPLC/UV)
Assay type: physicochemical
Conditions: water pH 1.7, room temperature (about 22° C.)
Method: Acid-stability measurements were taken for samples of aspartame, SGMAs, and a combination of SGMAs with the stabilizer. […] Acid-stability was measured in water having a pH of 1.7. The concentration of the aspartame or the SGMAs in the samples during the testing was 0.1 to 10 wt %. The samples were stored at room temperature (nominally about 22° C.) and samples were taken periodically. The concentration of the aspartame, SGMAs, MCQAs and DCQAs, as the case may be, was measured by UHPLC/UV then divided by the original concentration to determine a percent recovered.
FIG. 1 illustrates the results for three samples—one had 3000 ppm (0.3 wt %) aspartame, another had 5 wt % SGMAs, and the third had 5 wt % each of the SGMAs and the stabilizer. Aspartame has limited solubility, but 3000 ppm is on par with concentrations of throw syrups used to make some diet carbonated soft drinks that have about 500 ppm of aspartame. […] After 14 days of storage, the concentration of aspartame was about 78% of the initial concentration; stated another way, about 22% of the aspartame was degraded. In the same 14 days, the concentration of SGMAs in the SGMA-only sample was about 67% of the initial concentration, a degradation of about 33%. That means the SGMA degradation was 50% higher than the aspartame degradation (33% vs 22%).

- degradation after 14 days of storage: about 22%
- concentration as percent of the initial concentration (percent recovered) after 14 days of storage (3000 ppm aspartame, 5 wt % SGMAs, or 5 wt % each SGMAs and stabilizer): about 78%
Structure (SMILES): COC(=O)[C@H](Cc1ccccc1)NC(=O)[C@@H](N)CC(=O)O [aspartame] (H-Asp-Phe-OMe)
